Reference: article PMC8309005, “Novel Non-Congeneric Derivatives of the Choline Kinase Alpha Inhibitor ICL-CCIC-0019” (Pharmaceutics, 2021)

Key:
[1] = system: HCT-116 cells; experiment: Anti-proliferative SRB assay, HCT-116; format: cell-based; conditions: Homo sapiens
Experimental: (§1) Half-maximal growth inhibitory concentrations (GI50) were determined using sulforhodamine B (SRB) assay as described elsewhere. In brief, cells were seeded in 96-wells at respective cell densities determined by their cell growth curves. After 24 h, the cells were treated in six replicates with medium or different concentrations of CHKA inhibitors in medium and incubated for another 72 h. On completion of incubation, the cells were fixed with 10% trichloroacetic acid (TCA) and stained with 0.4% SRB in 1% acetic acid. The stained protein was solubilized with 10 mM Tris base and optical density values were measured at 540 nm using a Multiskan® EX Micro plate photometer (Thermo Scientific, Loughborough, UK). Growth inhibition curves were plotted as percentage of the control groups and GI50 data were determined by least squares fitting method using GraphPad Prism 7.0. All the chemicals used in this experiment were obtained from Sigma-Aldrich (Gillingham, UK).

[2] = system: HepG2 cells; experiment: Anti-proliferative SRB assay, HepG2; format: cell-based; conditions: Homo sapiens, 72 h, Table S2, ± SD
Experimental: as §1

[3] = system: Caco-2 cells; experiment: Anti-proliferative SRB assay, Caco-2; format: cell-based; conditions: Homo sapiens; Caco-2, SRB, 72 h; Table S2, ± SD
Experimental: as §1

[4] = system: 22Rv1 cell line; experiment: Anti-proliferative SRB assay, 22Rv1; format: cell-based; conditions: Homo sapiens; 22Rv1, PSMA +; Table S3, ± SD
Experimental: as §1

[5] = system: C4-2B cell line; experiment: Anti-proliferative SRB assay, C4-2B; format: cell-based; conditions: Homo sapiens, PSMA +, Table S3, ± SD
Experimental: as §1

[6] = system: LNCap cell line; experiment: Anti-proliferative SRB assay, LNCap; format: cell-based; conditions: Homo sapiens, PSMA +, Table S3, ± SD
Experimental: as §1

[7] = system: R1AD1 cell line; experiment: Anti-proliferative SRB assay, R1AD1; format: cell-based; conditions: Homo sapiens; R1AD1, PSMA −; Table S3, ± SD
Experimental: as §1

[8] = system: R1-D567 cell line; experiment: Anti-proliferative SRB assay, R1-D567; format: cell-based; conditions: Homo sapiens; R1-D567, PSMA −; Table S3, ± SD
Experimental: as §1

[9] = target: PI3K a (Homo sapiens, UniProt P42336); experiment: Lipid kinase screening (ADP-Glo), PI3K a; format: biochemical
Experimental: (§2) The lipid kinase screening for ICL-CCIC-0019, CK14, CK145 (5), CK146 (4) and CK147 (8) (testing concentration for all compounds: 10 μM) was performed by MRC PPU International Centre for Kinase Profiling (Dundee, UK). The lipid kinase screening panel includes 15 human recombinant lipid kinases and the tests used Promega ADP Glo^TM High Throughput Assay kit (Promega, Southampton, UK). For each assay, reference compounds were used as quality control. Finally, mean percentage activity inhibited by compounds and standard deviation for all the repeats were calculated.

[10] = target: PI3K b (Homo sapiens, UniProt P42338); experiment: Lipid kinase screening (ADP-Glo), PI3K b; format: biochemical
Experimental: as §2

[11] = target: PI3K g (Homo sapiens, UniProt P48736); experiment: Lipid kinase screening (ADP-Glo), PI3K g; format: biochemical
Experimental: as §2

[12] = target: SPHK1 (Homo sapiens, UniProt Q9NYA1); experiment: Lipid kinase screening (ADP-Glo), SPHK1; format: biochemical
Experimental: as §2

[13] = target: T1, SPHK2 (Homo sapiens, UniProt Q9NRA0); experiment: Lipid kinase screening (ADP-Glo), SPHK2; format: biochemical
T1 sequence (Q9NRA0 1-654): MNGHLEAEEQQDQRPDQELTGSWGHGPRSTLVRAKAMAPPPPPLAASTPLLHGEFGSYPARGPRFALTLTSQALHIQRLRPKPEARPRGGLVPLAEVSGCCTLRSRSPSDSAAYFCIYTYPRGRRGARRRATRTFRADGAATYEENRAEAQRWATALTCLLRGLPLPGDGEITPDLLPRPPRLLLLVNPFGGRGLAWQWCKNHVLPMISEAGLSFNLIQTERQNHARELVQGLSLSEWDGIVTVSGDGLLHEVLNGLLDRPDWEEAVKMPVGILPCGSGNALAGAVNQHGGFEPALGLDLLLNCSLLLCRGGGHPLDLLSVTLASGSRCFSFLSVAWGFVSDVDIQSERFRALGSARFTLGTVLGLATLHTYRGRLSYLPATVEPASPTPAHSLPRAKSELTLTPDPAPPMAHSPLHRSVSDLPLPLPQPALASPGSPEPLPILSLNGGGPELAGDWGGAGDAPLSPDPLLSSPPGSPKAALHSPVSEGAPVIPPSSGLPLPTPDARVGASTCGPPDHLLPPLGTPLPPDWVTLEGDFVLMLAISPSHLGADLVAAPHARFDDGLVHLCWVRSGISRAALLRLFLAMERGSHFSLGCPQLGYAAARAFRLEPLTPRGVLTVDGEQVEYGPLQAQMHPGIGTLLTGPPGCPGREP
Experimental: as §2

[14] = target: CHK a (CHKA) (Homo sapiens, UniProt P35790); experiment: Lipid kinase screening (ADP-Glo), CHKA; format: biochemical; conditions: for % Inhibition CHK a: 10 μM
Experimental: as §2

[15] = target: phosphatidylinositol 4-kinase beta (PIK4CB) (Homo sapiens, UniProt Q9UBF8); experiment: Lipid kinase screening (ADP-Glo), PIK4CB; format: biochemical
Experimental: as §2

[16] = target: DGK g (Homo sapiens, UniProt P49619); experiment: Lipid kinase screening (ADP-Glo), DGK g; format: biochemical
Experimental: as §2

[17] = target: PI4K2a (Homo sapiens, UniProt Q9BTU6); experiment: Lipid kinase screening (ADP-Glo), PI4K2a; format: biochemical
Experimental: as §2

[18] = target: CHK b (CHKB) (Homo sapiens, UniProt Q9Y259); experiment: Lipid kinase screening (ADP-Glo), CHKB; format: biochemical
Experimental: as §2

[19] = Human microsomal metabolic stability assay; format: in vitro ADME; conditions: for Predicted in vivo clearance: scaled from microsomal clearance (liver weight, microsomes per liver, liver blood flow); for Predicted in vivo clearance / PCT_LBF % (percentage of compound removed compared to liver blood flow) / microsomal CLint / half-life: human; for microsomal CLint / half-life: human liver microsome S9, human liver microsome S9; for microsomal CLint: read-out: Human Microsomal Metabolic Stability: Clint; for half-life: read-out: Human Microsomal Metabolic Stability: Half-life
Experimental: (§3) The ADME study for ICL-CCIC-0019, CK14, CK145 (5), CK146 (4) and CK147 (8) was performed by Charles River Drug Discovery Services (Essex, UK).
(§4) The predicted in vitro pharmacokinetic characteristics of compounds were evaluated by four ADME assays, namely kinetic solubility assay, metabolic stability assay using human liver microsome S9, permeability and efflux study using the Caco-2 cell line, and matrix stability assay using fasted state simulated gastric fluid (FaSSGF). All tested CHKA inhibitors were highly soluble (>150 μM) in 0.1 M PBS (2% DMSO) (Table 1). […] The in vivo clearance was calculated to predict the actual clearance in humans by scaling the clearance values, which takes into account liver weight, microsomes per liver and liver blood flow. […] In Caco-2 cell permeability assay, drug permeability was investigated and presented as apparent permeability coefficients (Papp) in A to B (A-B, apical to basolateral direction) and B to A (B-A, basolateral to apical direction).

[20] = Matrix stability assay in fasted state simulated gastric fluid (FaSSGF); format: in vitro ADME; conditions: for Matrix Stability: Remaining %: FaSSGF; for half-life: fasted state simulated gastric fluid (FaSSGF), fasted state simulated gastric fluid, pH 1.6, read-out: FaSSGF stability Half-life (converted)
Experimental: as §3, §4

[21] = HCT-116, PSMA −, Table S3, ± SD
[22] = HCT-116, SRB, 72 h, Table S2, ± SD

PI3K g, sequence (P48736 whole entry): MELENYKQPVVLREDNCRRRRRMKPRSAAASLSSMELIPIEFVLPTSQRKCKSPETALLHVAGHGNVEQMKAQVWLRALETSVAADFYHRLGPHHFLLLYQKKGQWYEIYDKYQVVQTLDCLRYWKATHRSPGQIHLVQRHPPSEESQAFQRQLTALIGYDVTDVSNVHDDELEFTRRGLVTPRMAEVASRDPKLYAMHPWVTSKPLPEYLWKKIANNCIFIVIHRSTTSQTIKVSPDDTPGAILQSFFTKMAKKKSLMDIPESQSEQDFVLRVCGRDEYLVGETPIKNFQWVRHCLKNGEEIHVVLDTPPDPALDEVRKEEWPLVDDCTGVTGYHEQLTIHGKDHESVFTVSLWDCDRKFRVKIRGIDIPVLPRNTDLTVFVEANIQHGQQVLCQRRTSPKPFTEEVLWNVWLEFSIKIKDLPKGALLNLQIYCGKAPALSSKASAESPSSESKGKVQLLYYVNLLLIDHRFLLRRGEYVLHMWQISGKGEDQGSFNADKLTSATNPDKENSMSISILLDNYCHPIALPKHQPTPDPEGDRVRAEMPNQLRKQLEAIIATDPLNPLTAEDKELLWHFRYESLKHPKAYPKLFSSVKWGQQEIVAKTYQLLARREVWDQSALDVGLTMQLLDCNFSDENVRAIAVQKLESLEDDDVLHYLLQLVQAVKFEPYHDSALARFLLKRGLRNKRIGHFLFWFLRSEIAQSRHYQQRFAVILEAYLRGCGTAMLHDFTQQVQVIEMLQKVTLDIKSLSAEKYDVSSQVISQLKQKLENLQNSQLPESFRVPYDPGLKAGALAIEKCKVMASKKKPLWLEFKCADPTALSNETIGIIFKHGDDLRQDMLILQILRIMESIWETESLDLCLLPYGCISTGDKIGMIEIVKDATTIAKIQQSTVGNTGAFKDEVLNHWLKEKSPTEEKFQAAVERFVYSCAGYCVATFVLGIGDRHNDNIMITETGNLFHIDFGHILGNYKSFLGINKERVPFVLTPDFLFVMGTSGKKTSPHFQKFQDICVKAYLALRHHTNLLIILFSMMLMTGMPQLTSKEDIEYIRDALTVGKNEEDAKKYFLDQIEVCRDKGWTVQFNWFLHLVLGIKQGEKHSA
PI4K2a, sequence (Q9BTU6 whole entry): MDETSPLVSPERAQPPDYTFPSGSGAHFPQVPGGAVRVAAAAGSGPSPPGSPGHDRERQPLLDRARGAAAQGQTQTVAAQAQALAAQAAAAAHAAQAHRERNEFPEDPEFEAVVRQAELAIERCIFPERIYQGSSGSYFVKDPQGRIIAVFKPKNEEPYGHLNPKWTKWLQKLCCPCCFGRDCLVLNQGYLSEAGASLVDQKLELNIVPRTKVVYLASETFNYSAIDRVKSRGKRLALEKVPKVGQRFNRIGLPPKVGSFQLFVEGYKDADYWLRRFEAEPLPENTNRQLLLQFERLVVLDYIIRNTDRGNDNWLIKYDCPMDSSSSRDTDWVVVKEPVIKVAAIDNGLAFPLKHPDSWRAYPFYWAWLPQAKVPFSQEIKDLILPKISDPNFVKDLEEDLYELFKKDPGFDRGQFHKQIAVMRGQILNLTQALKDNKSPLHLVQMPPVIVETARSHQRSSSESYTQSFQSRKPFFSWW
PI3K b, sequence (P42338 whole entry): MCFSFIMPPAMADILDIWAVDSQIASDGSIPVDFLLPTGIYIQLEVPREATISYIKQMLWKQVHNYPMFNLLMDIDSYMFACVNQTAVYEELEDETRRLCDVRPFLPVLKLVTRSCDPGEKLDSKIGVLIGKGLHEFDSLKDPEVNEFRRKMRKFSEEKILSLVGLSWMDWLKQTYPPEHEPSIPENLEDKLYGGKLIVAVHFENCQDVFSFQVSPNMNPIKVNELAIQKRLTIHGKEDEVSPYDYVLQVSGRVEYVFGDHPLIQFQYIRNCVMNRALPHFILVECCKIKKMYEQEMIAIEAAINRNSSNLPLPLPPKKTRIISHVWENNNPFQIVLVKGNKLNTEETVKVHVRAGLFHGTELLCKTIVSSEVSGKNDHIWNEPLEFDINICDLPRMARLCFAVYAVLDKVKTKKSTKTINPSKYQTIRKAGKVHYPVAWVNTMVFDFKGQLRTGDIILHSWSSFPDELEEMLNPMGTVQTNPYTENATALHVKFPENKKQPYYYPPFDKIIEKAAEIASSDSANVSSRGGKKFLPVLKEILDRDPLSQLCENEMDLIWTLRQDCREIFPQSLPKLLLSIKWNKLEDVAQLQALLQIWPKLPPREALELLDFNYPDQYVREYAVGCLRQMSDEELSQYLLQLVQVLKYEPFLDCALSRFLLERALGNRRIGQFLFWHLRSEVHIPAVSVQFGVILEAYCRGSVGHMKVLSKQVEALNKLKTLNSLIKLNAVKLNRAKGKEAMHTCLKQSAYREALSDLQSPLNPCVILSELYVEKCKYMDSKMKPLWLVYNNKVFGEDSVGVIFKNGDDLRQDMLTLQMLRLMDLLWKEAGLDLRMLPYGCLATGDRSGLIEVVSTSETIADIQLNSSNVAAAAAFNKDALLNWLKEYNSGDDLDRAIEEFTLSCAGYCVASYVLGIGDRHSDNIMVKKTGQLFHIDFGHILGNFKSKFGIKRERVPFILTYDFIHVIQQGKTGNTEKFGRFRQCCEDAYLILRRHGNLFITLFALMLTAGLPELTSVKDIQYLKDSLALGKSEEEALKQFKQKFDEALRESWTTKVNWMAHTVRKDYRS
PI3K b, sequence (P27986 whole entry partner): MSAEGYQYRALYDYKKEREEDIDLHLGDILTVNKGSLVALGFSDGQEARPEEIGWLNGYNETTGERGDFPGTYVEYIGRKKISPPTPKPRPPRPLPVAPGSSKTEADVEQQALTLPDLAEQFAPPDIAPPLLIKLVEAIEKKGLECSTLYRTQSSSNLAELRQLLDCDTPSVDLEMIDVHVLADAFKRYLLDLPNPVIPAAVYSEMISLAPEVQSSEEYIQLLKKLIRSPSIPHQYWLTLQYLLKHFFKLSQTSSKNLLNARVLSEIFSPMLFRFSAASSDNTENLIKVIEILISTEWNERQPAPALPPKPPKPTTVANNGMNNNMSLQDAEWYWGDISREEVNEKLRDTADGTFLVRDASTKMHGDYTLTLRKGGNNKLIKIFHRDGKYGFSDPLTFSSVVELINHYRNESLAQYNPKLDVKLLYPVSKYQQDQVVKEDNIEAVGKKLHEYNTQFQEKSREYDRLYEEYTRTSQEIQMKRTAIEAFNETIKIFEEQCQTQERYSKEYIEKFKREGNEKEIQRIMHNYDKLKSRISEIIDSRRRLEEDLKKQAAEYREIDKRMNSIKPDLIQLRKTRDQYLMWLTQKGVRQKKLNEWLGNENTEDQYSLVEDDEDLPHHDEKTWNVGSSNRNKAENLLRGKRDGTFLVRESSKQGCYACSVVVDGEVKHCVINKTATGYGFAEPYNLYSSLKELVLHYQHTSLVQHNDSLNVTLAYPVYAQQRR
SPHK1, sequence (Q9NYA1 whole entry): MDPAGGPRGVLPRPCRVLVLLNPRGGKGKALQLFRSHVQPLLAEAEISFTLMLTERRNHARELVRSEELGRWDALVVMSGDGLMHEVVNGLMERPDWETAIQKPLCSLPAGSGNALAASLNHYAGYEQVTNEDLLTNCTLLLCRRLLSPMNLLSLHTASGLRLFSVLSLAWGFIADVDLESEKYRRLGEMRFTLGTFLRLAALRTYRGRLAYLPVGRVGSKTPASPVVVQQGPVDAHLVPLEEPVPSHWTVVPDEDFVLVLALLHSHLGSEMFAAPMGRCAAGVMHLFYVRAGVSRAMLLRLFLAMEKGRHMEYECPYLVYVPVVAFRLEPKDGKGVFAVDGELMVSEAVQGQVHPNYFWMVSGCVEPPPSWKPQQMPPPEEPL
DGK g, sequence (P49619 whole entry): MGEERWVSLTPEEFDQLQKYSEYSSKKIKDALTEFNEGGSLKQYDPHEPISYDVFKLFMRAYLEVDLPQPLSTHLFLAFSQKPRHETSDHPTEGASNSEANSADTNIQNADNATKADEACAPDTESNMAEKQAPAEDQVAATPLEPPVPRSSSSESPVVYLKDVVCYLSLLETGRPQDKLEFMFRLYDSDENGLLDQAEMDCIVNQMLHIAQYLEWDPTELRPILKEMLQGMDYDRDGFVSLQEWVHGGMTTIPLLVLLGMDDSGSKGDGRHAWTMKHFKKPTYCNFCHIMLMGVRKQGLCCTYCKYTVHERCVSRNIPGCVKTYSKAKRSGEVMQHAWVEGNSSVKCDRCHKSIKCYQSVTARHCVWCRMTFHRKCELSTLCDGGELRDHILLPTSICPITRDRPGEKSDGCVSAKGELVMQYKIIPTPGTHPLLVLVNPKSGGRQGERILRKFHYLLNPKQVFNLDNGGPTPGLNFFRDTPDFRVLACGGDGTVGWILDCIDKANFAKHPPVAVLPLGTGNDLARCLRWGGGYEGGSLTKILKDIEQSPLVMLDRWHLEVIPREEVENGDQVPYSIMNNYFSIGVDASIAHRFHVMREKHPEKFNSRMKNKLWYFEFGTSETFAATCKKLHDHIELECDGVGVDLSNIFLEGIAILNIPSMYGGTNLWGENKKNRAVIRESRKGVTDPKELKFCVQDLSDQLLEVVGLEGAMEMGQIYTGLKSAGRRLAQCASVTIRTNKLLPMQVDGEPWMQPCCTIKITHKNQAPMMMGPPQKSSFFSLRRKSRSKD
CHK b (CHKB), sequence (Q9Y259 whole entry): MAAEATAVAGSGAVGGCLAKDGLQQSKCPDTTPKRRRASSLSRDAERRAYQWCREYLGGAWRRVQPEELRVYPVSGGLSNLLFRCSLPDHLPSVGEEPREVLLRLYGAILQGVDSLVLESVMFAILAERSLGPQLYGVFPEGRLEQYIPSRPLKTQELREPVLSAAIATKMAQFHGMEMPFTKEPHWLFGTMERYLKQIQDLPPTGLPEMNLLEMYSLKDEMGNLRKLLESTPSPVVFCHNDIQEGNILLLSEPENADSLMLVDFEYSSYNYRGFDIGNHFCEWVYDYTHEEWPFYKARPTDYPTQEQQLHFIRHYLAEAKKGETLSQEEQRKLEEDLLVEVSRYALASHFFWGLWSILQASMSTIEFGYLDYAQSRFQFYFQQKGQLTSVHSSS

Row | GI50 [1, 21] | GI50 [1, 22] | GI50 [2] | GI50 [3] | GI50 [4] | GI50 [6] | inhibition at 10 µM [9] | inhibition at 10 µM [10] | inhibition at 10 µM [11] | inhibition at 10 µM [12] | inhibition at 10 µM [13] | inhibition at 10 µM [14] | % Inhibition CHK a [14] | inhibition at 10 µM [15] | inhibition at 10 µM [16] | inhibition at 10 µM [17] | inhibition at 10 µM [18] | SMILES | GI50 [5] | GI50 [7] | GI50 [8] | other results
1 | 103 ± 6.27 µM | 6.63 ± 0.2 µM | 2.25 ± 0.06 µM | 10.8 ± 1 µM | 45.6 ± 6.4 µM | 39 ± 8.56 µM | -1% | -15.8% | 2.9% | 0.6% | 13.2% | 63% | 62.9% | 51% | 13.2% | -11.4% | -18.1% | CC(=O)NCCCCC(NC(=O)OC(C)(C)C)C(=O)N1CCN(c2cc[n+](CCCCCCCCCCCCCC[n+]3ccc(N(C)C)cc3)cc2)CC1 (stereo not drawn) [CK145] | 63 ± 12.1 µM | 53.4 ± 2.27 µM | 40.4 ± 4.56 µM | % Inhibition PIK4CB ([15]; 10 μM): 50.6%; Human Microsomal Metabolic Stability: Remaining % ([19]; human liver microsome S9): 2%; metabolic stability (in words) ([19]; human liver microsome S9): Rapid decomposition; Predicted in vivo clearance [19]: 19 mL/min/kg; Matrix Stability: Remaining % [20]: 74%; half-life [20]: 9.2 h; FaSSGF stability (in words) ([20]; low pH (1.6)): Rapid decomposition
2 | 4.76 ± 0.8 µM | 4.76 ± 0.8 µM | 0.21 ± 0.01 µM | 3.09 ± 0.05 µM | 4.98 ± 1.5 µM | 1.92 ± 0.99 µM | -5.4% | -45.9% | 6.7% | 2.1% | 10% | 69% | 69.1% | 47% | 10.7% | -13.4% | -49% | CN(C)c1cc[n+](CCCCCCCCCCCCCC[n+]2ccc(N3CCNCC3)cc2)cc1 [CK146] | 4.22 ± 0.43 µM | 5.67 ± 2.33 µM | 0.87 ± 0.03 µM | PCT_LBF % (percentage of compound removed compared to liver blood flow) [19]: <45%; Human Microsomal Metabolic Stability: Remaining % ([19]; human liver microsome S9): 127%; microsomal CLint [19]: < 14 µL/min/mg; half-life [19]: > 1.67 h; Predicted in vivo clearance [19]: <10 mL/min/kg; Matrix Stability: Remaining % [20]: 92%; half-life [20]: > 10 h
3 | 0.42 ± 0.03 µM | 0.42 ± 0.03 µM | 0.18 ± 0.01 µM | 1.19 ± 0.04 µM | 0.91 ± 0.13 µM | 0.3 ± 0.06 µM | 1% | -39.6% | 4.9% | -3.7% | 22.4% | 53% | 53.4% | -24.1% | 7.8% | -13.9% | -28.6% | CN(C)c1cc[n+](CCCCCCCCCCCC[n+]2ccc(N(C)C)cc2)cc1 [ICL-CCIC-0019] | 1.2 ± 0.31 µM | 0.4 ± 0.01 µM | 0.32 µM | PCT_LBF % (percentage of compound removed compared to liver blood flow) [19]: <45%; Human Microsomal Metabolic Stability: Remaining % ([19]; human liver microsome S9): 92%; microsomal CLint [19]: < 14 µL/min/mg; half-life [19]: > 1.67 h; Predicted in vivo clearance [19]: <10 mL/min/kg; Matrix Stability: Remaining % [20]: 117%; half-life [20]: > 10 h
